Among the data in ChEMBL document CHEMBL1135107, “Synthesis and evaluation of new antimalarial analogues of quinoline alkaloids derived from Cinchona ledgeriana Moens ex Trimen” (Bioorg Med Chem Lett, 2002) are IC50 values, retold here.

Assay [1] has as its system Plasmodium falciparum. The assay is described as follows: In vitro antimalarial activity against Plasmodium falciparum W2 in human erythrocytes by [3H]hypoxanthine uptake. It is filed as functional, organism-based.
The subject of assay [2] is Plasmodium falciparum. The assay is described as follows: In vitro inhibition of parasite development of Plasmodium falciparum W2 in human erythrocytes. It is filed as functional, organism-based.

Broadly, the IC50 is the concentration that inhibits the measured activity by half. In the case of `C=C[C@H]1C[N@+]2(Cc3cc(C(C)(C)C)c(OC)c(C(C)(C)C)c3)CC[C@H]1C[C@@H]2[C@@H](OCc1ccccc1)c1ccnc2ccc(OC)cc12`, the IC50 with Plasmodium falciparum [1] (Plasmodium falciparum) was found to be 410 nM; in the assay with Plasmodium falciparum [2] (Plasmodium falciparum), 100 nM.

On to `C=C[C@H]1C[N@+]2(Cc3cc(C(C)(C)C)c(OC)c(C(C)(C)C)c3)CC[C@H]1C[C@@H]2[C@@H](O)c1ccnc2ccccc12` (stereo in doubt; form 1), for which the figures for the concentration for half-maximal inhibition (IC50) in the assay on Plasmodium falciparum [1] and in the assay on Plasmodium falciparum [2] were 800 nM and 530 nM, respectively.

With `C=C[C@H]1CN2CC[C@H]1C[C@@H]2[C@@H](O)c1ccnc2ccccc12` [CINCHONINE], the IC50 in the assay on Plasmodium falciparum [1] (Plasmodium falciparum) came out at 220 nM; in the assay on Plasmodium falciparum [2] (Plasmodium falciparum), 51 nM.

Turning to `C=C[C@H]1C[N@+]2(Cc3cc(C(C)(C)C)c(OC)c(C(C)(C)C)c3)CC[C@H]1C[C@@H]2[C@@H](O)c1ccnc2ccc(OC)cc12`, the IC50 in the assay on Plasmodium falciparum [1] (Plasmodium falciparum) was 1000 nM; in the assay with Plasmodium falciparum [2] (Plasmodium falciparum), 510 nM.

With `C=C[C@H]1CN2CC[C@H]1C[C@H]2[C@H](O)c1ccnc2ccc(OC)cc12` [QUININE], the results for the IC50 in the assay with Plasmodium falciparum [1] (Plasmodium falciparum) and in the assay on Plasmodium falciparum [2] (Plasmodium falciparum) were 370 nM and 120 nM, respectively.

Consider `C=C[C@H]1CN2CC[C@H]1C[C@H]2[C@H](O)c1ccnc2ccccc12` [CINCHONIDINE], for which the IC50 in the assay with Plasmodium falciparum [1] (Plasmodium falciparum) was determined as 380 nM; with Plasmodium falciparum [2] (Plasmodium falciparum), 290 nM.

With `C=C[C@H]1C[N@+]2(Cc3cc(C(C)(C)C)c(OC)c(C(C)(C)C)c3)CC[C@H]1C[C@H]2[C@H](OCc1ccccc1)c1ccnc2ccc(OC)cc12`, the IC50 is 620 nM in the assay on Plasmodium falciparum [1] (Plasmodium falciparum) and 150 nM with Plasmodium falciparum [2] (Plasmodium falciparum).

Consider `C=CCO[C@@H](c1ccnc2ccc(OC)cc12)[C@H]1C[C@@H]2CC[N@@+]1(Cc1cc(C(C)(C)C)c(OC)c(C(C)(C)C)c1)C[C@@H]2C=C`, for which the 50% inhibitory concentration (IC50) was 1200 nM with Plasmodium falciparum [1] (Plasmodium falciparum) and 230 nM in the assay with Plasmodium falciparum [2] (Plasmodium falciparum).

Turning to `C=C[C@H]1C[N@+]2(Cc3cc(C(C)(C)C)c(OC)c(C(C)(C)C)c3)CC[C@H]1C[C@H]2[C@H](O)c1ccnc2ccccc12`, the figures for the IC50 in the assay with Plasmodium falciparum [1] (Plasmodium falciparum) and with Plasmodium falciparum [2] (Plasmodium falciparum) were 510 nM and 160 nM, respectively.

For the molecule `C=C[C@H]1C[N@+]2(Cc3cc(C(C)(C)C)c(OC)c(C(C)(C)C)c3)CC[C@H]1C[C@H]2[C@H](O)c1ccnc2ccc(OC)cc12`, the IC50 was found to be 380 nM in the assay on Plasmodium falciparum [1] (Plasmodium falciparum) and 99 nM in the assay on Plasmodium falciparum [2] (Plasmodium falciparum).

Regarding `C=C[C@H]1C[N@+]2(Cc3cc(C(C)(C)C)c(OC)c(C(C)(C)C)c3)CC[C@H]1C[C@@H]2[C@@H](OCc1ccccc1)c1ccnc2ccccc12`, the IC50 turned out to be 1100 nM in the assay with Plasmodium falciparum [1] (Plasmodium falciparum) and 120 nM with Plasmodium falciparum [2] (Plasmodium falciparum).

Take `C=C[C@H]1CN2CC[C@H]1C[C@@H]2[C@@H](O)c1ccnc2ccc(OC)cc12` [QUINIDINE]: the figures for the IC50 in the assay with Plasmodium falciparum [1] (Plasmodium falciparum) and in the assay on Plasmodium falciparum [2] (Plasmodium falciparum) were 160 nM and 4 nM, respectively.

On to `C=C[C@H]1C[N@+]2(Cc3cc(C(C)(C)C)c(OC)c(C(C)(C)C)c3)CC[C@H]1C[C@@H]2[C@@H](O)c1ccnc2ccccc12` (stereo in doubt; form 2), for which the 50% inhibitory concentration (IC50) in the assay with Plasmodium falciparum [1] turned out to be 360 nM; with Plasmodium falciparum [2], 160 nM.

As for `C=CCO[C@H](c1ccnc2ccccc12)[C@@H]1C[C@@H]2CC[N@@+]1(Cc1cc(C(C)(C)C)c(OC)c(C(C)(C)C)c1)C[C@@H]2C=C`, the IC50 with Plasmodium falciparum [1] (Plasmodium falciparum) came out at 1100 nM; with Plasmodium falciparum [2] (Plasmodium falciparum), 580 nM.

With `C=CCO[C@H](c1ccnc2ccc(OC)cc12)[C@@H]1C[C@@H]2CC[N@@+]1(Cc1cc(C(C)(C)C)c(OC)c(C(C)(C)C)c1)C[C@@H]2C=C`, the IC50 in the assay on Plasmodium falciparum [1] (Plasmodium falciparum) worked out at 1000 nM; with Plasmodium falciparum [2] (Plasmodium falciparum), 410 nM.

For the molecule `C=C[C@H]1C[N@+]2(Cc3cc(C(C)(C)C)c(OC)c(C(C)(C)C)c3)CC[C@H]1C[C@H]2[C@H](OCc1ccccc1)c1ccnc2ccccc12`, the 50% inhibitory concentration (IC50) in the assay with Plasmodium falciparum [1] (Plasmodium falciparum) stood at 520 nM; in the assay with Plasmodium falciparum [2] (Plasmodium falciparum), 63 nM.
